Measurements from patent publication US9765092B2, “Tricyclic piperidine compounds” (ACTELION PHARMACEUTICALS LTD, priority 2013, dated 2017).

Target: human TPH1 (Homo sapiens (Human), UniProt P17752)
Assay: Biochemical in vitro assay using fluorescence readout (TPH1 inhibition)
Settings: full length human TPH1, 40 μM L-tryptophan, 15° C., 60 minutes, fluorescence at 540 nm; mean if determined several times

human TPH1, sequence (P17752 whole entry): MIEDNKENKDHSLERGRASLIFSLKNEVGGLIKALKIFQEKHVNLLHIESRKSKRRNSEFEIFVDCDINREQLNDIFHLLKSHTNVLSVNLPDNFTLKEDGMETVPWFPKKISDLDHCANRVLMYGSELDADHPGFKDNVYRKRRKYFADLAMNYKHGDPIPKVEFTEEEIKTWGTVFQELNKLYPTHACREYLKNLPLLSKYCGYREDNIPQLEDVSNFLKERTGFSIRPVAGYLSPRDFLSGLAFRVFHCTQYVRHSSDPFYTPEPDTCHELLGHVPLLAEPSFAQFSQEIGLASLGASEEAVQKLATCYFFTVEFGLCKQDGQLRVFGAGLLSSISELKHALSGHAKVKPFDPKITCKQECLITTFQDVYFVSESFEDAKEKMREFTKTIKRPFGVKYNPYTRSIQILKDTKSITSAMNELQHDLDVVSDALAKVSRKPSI

Row | Compound | IC50 [nM]
1 | Cc1nn2c3c(nc2s1)CCN(C(=O)COc1ccc(C(=O)NC2CC2)nc1Cl)C3c1ccc(OCCO)cc1F (stereo not shown) [Example 1.84.1, 6-chloro-N-cyclopropyl-5-(2-(5-(2-fluoro-4-(2-hydroxyethoxy)phenyl)-2-methyl-7,8-dihydro-[1,3,4]thiadiazolo[2′,3′:2,3]imidazo[4,5-c]pyridin-6(5H)-yl)-2-oxoethoxy)picolinamide] | 14
2 | Cc1nn2c3c(nc2s1)CCN(C(=O)COc1ccc(NS(C)(=O)=O)nc1Cl)C3c1ccc(OCCO)cc1F (stereo not shown) [Example 1.84.2, N-(6-Chloro-5-(2-(5-(2-fluoro-4-(2-hydroxyethoxy)phenyl)-2-methyl-7,8-dihydro-[1,3,4]thiadiazolo[2′,3′:2,3]imidazo[4,5-c]pyridin-6(5H)-yl)-2-oxoethoxy)pyridin-2-yl)methanesulfonamide] | 16

Same assay, conditions: human TPH1, fluorescence readout

Row | Compound | IC50 [nM]
3 | Cc1nn2c3c(nc2s1)CCN(C(=O)COc1ccc(NS(C)(=O)=O)nc1Cl)C3c1cc(F)c(C)cc1F (stereo not shown) [Example 1.74.2, N-(6-chloro-5-(2-(5-(2,5-difluoro-4-methylphenyl)-2-methyl-7,8-dihydro-[1,3,4]thiadiazolo[2′,3′:2,3]imidazo[4,5-c]pyridin-6(5H)-yl)-2-oxoethoxy)pyridin-2-yl)methanesulfonamide] | 18
4 | Cc1nn2c3c(nc2s1)CCN(C(=O)COc1ccc(NS(C)(=O)=O)nc1Cl)C3c1ncc(F)cc1C (stereo not shown) [Example 1.75.1, N-(6-chloro-5-(2-(5-(5-fluoro-3-methylpyridin-2-yl)-2-methyl-7,8-dihydro-[1,3,4]thiadiazolo[2′,3′:2,3]imidazo[4,5-c]pyridin-6(5H)-yl)-2-oxoethoxy)pyridin-2-yl)methanesulfonamide] | 9
5 | Cc1nn2c3c(nc2s1)CCN(C(=O)COc1ccc(NS(C)(=O)=O)nc1Cl)C3c1sc(C(F)(F)F)nc1C (stereo not shown) [Example 1.76.1, N-(6-chloro-5-(2-(2-methyl-5-(4-methyl-2-(trifluoromethyl)thiazol-5-yl)-7,8-dihydro-[1,3,4]thiadiazolo[2′,3′:2,3]imidazo[4,5-c]pyridin-6(5H)-yl)-2-oxoethoxy)pyridin-2-yl)methanesulfonamide] | 20
6 | Cc1nn2c3c(nc2s1)CCN(C(=O)COc1ccc(NS(C)(=O)=O)nc1Cl)C3c1ccc(OC(F)(F)F)cc1F (stereo not shown) [Example 1.77.1, N-(6-chloro-5-(2-(5-(2-fluoro-4-(trifluoromethoxy)phenyl)-2-methyl-7,8-dihydro-[1,3,4]thiadiazolo[2′,3′:2,3]imidazo[4,5-c]pyridin-6(5H)-yl)-2-oxoethoxy)pyridin-2-yl)methanesulfonamide] | 13
7 | Cc1nn2c3c(nc2s1)CCN(C(=O)COc1ccc(C(=O)NC2CC2)nc1Cl)C3c1ccc(OC(F)(F)F)cc1F (stereo not shown) [Example 1.77.2, 6-chloro-N-cyclopropyl-5-(2-(5-(2-fluoro-4-(trifluoromethoxy)phenyl)-2-methyl-7,8-dihydro-[1,3,4]thiadiazolo[2′,3′:2,3]imidazo[4,5-c]pyridin-6(5H)-yl)-2-oxoethoxy)picolinamide] | 28
8 | COC(=O)c1ccc(C2c3c(nc4sc(C)nn34)CCN2C(=O)COc2ccc(NS(C)(=O)=O)nc2Cl)c(F)c1 (stereo not shown) [Example 1.79.1, methyl-4-(6-(2-((2-chloro-6-(methylsulfonamido)pyridin-3-yl)oxy)acetyl)-2-methyl-5,6,7,8-tetrahydro-[1,3,4]thiadiazolo[2′,3′:2,3]imidazo[4,5-c]pyridin-5-yl)-3-fluorobenzoate] | 17
9 | COC(=O)c1ccc(C2c3c(nc4sc(C)nn34)CCN2C(=O)COc2ccc(C(=O)NC3CC3)nc2Cl)c(F)c1 (stereo not shown) [Example 1.79.2, methyl-4-(6-(2-((2-chloro-6-(cyclopropylcarbamoyl)pyridin-3-yl)oxy)acetyl)-2-methyl-5,6,7,8-tetrahydro-[1,3,4]thiadiazolo[2′,3′:2,3]imidazo[4,5-c]pyridin-5-yl)-3-fluorobenzoate] | 21
10 | Cc1nn2c3c(nc2s1)CCN(C(=O)COc1ccc(NS(C)(=O)=O)nc1Cl)C3c1ccc(C(C)(C)O)cc1F (stereo not shown) [Example 1.80.1, N-(6-chloro-5-(2-(5-(2-fluoro-4-(2-hydroxypropan-2-yl)phenyl)-2-methyl-7,8-dihydro-[1,3,4]thiadiazolo[2′,3′:2,3]imidazo[4,5-c]pyridin-6(5H)-yl)-2-oxoethoxy)pyridin-2-yl)methanesulfonamide] | 98
11 | Cc1nn2c3c(nc2s1)CCN(C(=O)COc1ccc(C(=O)NC2CC2)nc1Cl)C3c1ccc(C(C)(C)O)cc1F (stereo not shown) [Example 1.80.2, 6-chloro-N-cyclopropyl-5-(2-(5-(2-fluoro-4-(2-hydroxypropan-2-yl)phenyl)-2-methyl-7,8-dihydro-[1,3,4]thiadiazolo[2′,3′:2,3]imidazo[4,5-c]pyridin-6(5H)-yl)-2-oxoethoxy)picolinamide] | 65
12 | COC(C)(C)c1ccc(C2c3c(nc4sc(C)nn34)CCN2C(=O)COc2ccc(C(=O)NC3CC3)nc2Cl)c(F)c1 (stereo not shown) [Example 1.81.1, 6-chloro-N-cyclopropyl-5-(2-(5-(2-fluoro-4-(2-methoxypropan-2-yl)phenyl)-2-methyl-7,8-dihydro-[1,3,4]thiadiazolo[2′,3′:2,3]imidazo[4,5-c]pyridin-6(5H)-yl)-2-oxoethoxy)picolinamide] | 27
13 | COC(C)(C)c1ccc(C2c3c(nc4sc(C)nn34)CCN2C(=O)COc2ccc(NS(C)(=O)=O)nc2Cl)c(F)c1 (stereo not shown) [Example 1.81.2, N-(6-chloro-5-(2-(5-(2-fluoro-4-(2-methoxypropan-2-yl)phenyl)-2-methyl-7,8-dihydro-[1,3,4]thiadiazolo[2′,3′:2,3]imidazo[4,5-c]pyridin-6(5H)-yl)-2-oxoethoxy)pyridin-2-yl)methanesulfonamide] | 132
14 | COCc1ccc(C2c3c(nc4sc(C)nn34)CCN2C(=O)COc2ccc(NS(C)(=O)=O)nc2Cl)c(F)c1 (stereo not shown) [Example 1.82.1, N-(6-chloro-5-(2-(5-(2-fluoro-4-(methoxymethyl)phenyl)-2-methyl-7,8-dihydro-[1,3,4]thiadiazolo[2′,3′:2,3]imidazo[4,5-c]pyridin-6(5H)-yl)-2-oxoethoxy)pyridin-2-yl)methanesulfonamide] | 17
15 | COCc1ccc(C2c3c(nc4sc(C)nn34)CCN2C(=O)COc2ccc(C(=O)NC3CC3)nc2Cl)c(F)c1 (stereo not shown) [Example 1.82.2, 6-chloro-N-cyclopropyl-5-(2-(5-(2-fluoro-4-(methoxymethyl)phenyl)-2-methyl-7,8-dihydro-[1,3,4]thiadiazolo[2′,3′:2,3]imidazo[4,5-c]pyridin-6(5H)-yl)-2-oxoethoxy)picolinamide] | 14
16 | COCCOc1ccc(C2c3c(nc4sc(C)nn34)CCN2C(=O)COc2ccc(C(=O)NC3CC3)nc2Cl)c(F)c1 (stereo not shown) [Example 1.83.1, 6-chloro-N-cyclopropyl-5-(2-(5-(2-fluoro-4-(2-methoxyethoxy)phenyl)-2-methyl-7,8-dihydro-[1,3,4]thiadiazolo[2′,3′:2,3]imidazo[4,5-c]pyridin-6(5H)-yl)-2-oxoethoxy)picolinamide] | 24
17 | COCCOc1ccc(C2c3c(nc4sc(C)nn34)CCN2C(=O)COc2ccc(NS(C)(=O)=O)nc2Cl)c(F)c1 (stereo not shown) [Example 1.83.2, N-(6-chloro-5-(2-(5-(2-fluoro-4-(2-methoxyethoxy)phenyl)-2-methyl-7,8-dihydro-[1,3,4]thiadiazolo[2′,3′:2,3]imidazo[4,5-c]pyridin-6(5H)-yl)-2-oxoethoxy)pyridin-2-yl)methanesulfonamide] | 18
18 | Cc1nn2c3c(nc2s1)CCN(C(=O)COc1ccc(N2CCOCC2)nc1Cl)C3c1csc(C2OCCO2)c1 (stereo not shown) [Example 1.85.1, 1-(5-(5-(1,3-dioxolan-2-yl)thiophen-3-yl)-2-methyl-7,8-dihydro-[1,3,4]thiadiazolo[2′,3′:2,3]imidazo[4,5-c]pyridin-6(5H)-yl)-2-((2-chloro-6-morpholinopyridin-3-yl)oxy)ethan-1-one] | 13
19 | CS(=O)(=O)Nc1ccc(OCC(=O)N2CCc3nc4scnn4c3C2c2ccc(Cl)cc2F)c(Cl)n1 (stereo not shown) [Example 2.1.1, N-(6-chloro-5-(2-(5-(4-chloro-2-fluorophenyl)-7,8-dihydro-[1,3,4]thiadiazolo[2′,3′:2,3]imidazo[4,5-c]-pyridin-6(5H)-yl)-2-oxoethoxy)pyridin-2-yl)methanesulfonamide] | 11
20 | N#Cc1ccc(OCC(=O)N2CCc3nc4scnn4c3C2c2ccc(Cl)cc2F)c(Cl)c1 (stereo not shown) [Example 2.1.2, 3-chloro-4-(2-(5-(4-chloro-2-fluorophenyl)-7,8-dihydro-[1,3,4]thiadiazolo[2′,3′:2,3]imidazo[4,5-c]pyridin-6(5H)-yl)-2-oxoethoxy)benzonitrile] | 31
21 | O=C(COc1ccc(-c2ncco2)nc1Cl)N1CCc2nc3scnn3c2C1c1ccc(Cl)cc1F (stereo not shown) [Example 2.1.3] | 8
22 | CCc1nn2c3c(nc2s1)CCN(C(=O)COc1ccc(NS(C)(=O)=O)nc1Cl)C3c1ccc(Cl)cc1F (stereo not shown) [Example 3.1.1, N-(6-chloro-5-(2-(5-(4-chloro-2-fluorophenyl)-2-ethyl-7,8-dihydro-[1,3,4]thiadiazolo[2′,3′:2,3]imidazo[4,5-c]-pyridin-6(5H)-yl)-2-oxoethoxy)pyridin-2-yl)methanesulfonamide] | 13
23 | CCc1nn2c3c(nc2s1)CCN(C(=O)COc1ccc(C#N)cc1Cl)C3c1ccc(Cl)cc1F (stereo not shown) [Example 3.1.2, 3-chloro-4-(2-(5-(4-chloro-2-fluorophenyl)-2-ethyl-7,8-dihydro-[1,3,4]thiadiazolo[2′,3′:2,3]imidazo[4,5-c]pyridin-6(5H)-yl)-2-oxoethoxy)benzonitrile] | 15
24 | CCc1nn2c3c(nc2s1)CCN(C(=O)COc1ccc(-c2ncco2)nc1Cl)C3c1ccc(Cl)cc1F (stereo not shown) [Example 3.1.3, 1-(5-(4-chloro-2-fluorophenyl)-2-ethyl-7,8-dihydro-[1,3,4]thiadiazolo[2′,3′:2,3]imidazo[4,5-c]pyridin-6(5H)-yl)-2-((2-chloro-6-(oxazol-2-yl)pyridin-3-yl)oxy)ethanone] | 12
25 | CCc1nn2c3c(nc2s1)CCN(C(=O)COc1ccc(N2CCN(C)CC2)nc1Cl)C3c1ccc(Cl)cc1F (stereo not shown) [Example 3.1.4, 1-(5-(4-chloro-2-fluorophenyl)-2-ethyl-7,8-dihydro-[1,3,4]thiadiazolo[2′,3′:2,3]imidazo[4,5-c]pyridin-6(5H)-yl)-2-((2-chloro-6-(4-methylpiperazin-1-yl)pyridin-3-yl)oxy)ethanone] | 10
